Columns and labels:
Candida albicans [1] = experiment: Living body staining of Candida species (FDA/PI); type: cell-based; conditions: conclusion from living body staining
Procedure: Co-culturing of an epithelial cell with a Candida species (effector:target ratio (to be referred to as “E:T” hereinafter) is 20:1, 40:1 or 80:1) was carried out in 100 μl of a medium using a 96 well plate (manufactured by Costar). After 9 hours of incubation, the co-culture mixture was recovered and washed twice. Fluorescein diacetate (which stain living cells, to be referred to as “FDA” hereinafter) (50 μg/mL) and propidium iodide (which stain dead cells, to be referred to as “PI” hereinafter)(1 μg/mL) (both manufactured by Sigma) (Adv. Biochem. Eng. Biotechnol., 62, p. 33-73 (1998), Anal. Chem., 37, p. 1219-1221 (1965)) were simultaneously added to the pellet of cells and incubated at room temperature for 20 minutes in the dark. In this connection, optimum concentrations of the respective pigments were determined by a preliminary test.
After the incubation, the co-culture mixture was washed with PBS and then with PBS containing 20% FCS, respectively, and then again washed with PBS. The pellet was resuspended in 100 μl, of PBS, and a 5 μL thereof was put on a slide glass and observed under a fluorescent phase contrast microscope (DP-70 manufactured by Olympus Corporation). Growth inhibition of Candida species by the epithelial cell was confirmed by 9 hours of a growth inhibition assay. […]

Candida albicans [2] = experiment: Analysis of the activity of inhibiting Candida growth of HA (absorbance at 660 nm); type: cell-based; conditions: Candida albicans 5×10^5 cells/mL, 9 hours with HA of various concentration (0.1, 1.0 mg/mL) and weight average molecular weight; FIG. 3
Procedure: Co-culture of HA and Candida was carried out in 100 μl of a medium using a 96 well plate (manufactured by Iwaki). Candida albicans was prepared by growing it at 37° C. overnight in the GP broth under an aerobic condition. The Candida albicans culture mixture was incubated at 37° C. for 9 hours under a condition of 10% CO2 in the presence of various final concentrations (0.1 mg/mL, 1.0 mg/mL) of HA having various sizes (tetradecasaccharide, weight average molecular weight 60 kDa, 250 kDa, 800 kDa or 2,000 kDa).
(§1) After completion of the incubation, in order to evaluate the degree of growth of each Candida species, the culture medium was thoroughly mixed, and its absorbance at a wavelength of 660 nm was measured. Hereinafter, absorbance of the sample incubated in the presence of HA is referred to as “ODtest”. As a control, the absorbance at a wavelength of 660 nm was measured using a sample of each Candida species incubated in the same manner in the absence of HA. Hereinafter, absorbance of this control is referred to as “ODcontrol”.
(§2) Growth inhibition ratio (%) was calculated from the value of “ODtest” and the value of “ODcontrol” of its corresponding Candida species based on the following formula. Growth inhibition ratio (%)=(1−ODtest/ODcontrol)×100 (1-5-2) Quantitative Plate Count […]

[3] = system: Candida glabrata ATCC 2001, Candida krusei ATCC 6258 and Candida tropicalis ATCC 4563; experiment: Activity of inhibiting growth for various Candida species by HA (absorbance at 660 nm); type: cell-based; conditions: other Candida species 5×10^5 cells/mL, 9 hours with HA of 2,000 kDa; FIG. 5
Procedure: Additionally, other Candida species (Candida glabrata ATCC 2001, Candida krusei ATCC 6258 and Candida tropicalis ATCC 4563) were prepared by allowing them to grow at 37° C. overnight in the GP broth under an aerobic condition. Culture mixtures of these Candida species (cell density: 5×10^5) were incubated at 37° C. for 9 hours under a condition of 10% CO2 together with various final concentrations (0.1 mg/mL, 1.0 mg/mL) of HA having a weight average molecular weight of 2,000 kDa.
as §1, §2

KB cells = experiment: MTT assay of hyaluronidase-treated cells; type: cell-based, human; conditions: hyaluronidase 10, 20 or 100 units/mL, data not shown
Procedure: (§3) Assay of living cells was carried out in the same manner as in the reported reference (Infect. Immun., 69, p. 5925-5930 (2001)).
(§4) In briefly describing, firstly, the COS-7 and KB cells were plated on a 96 well plate at a density of 5×10^5 cells/mL. Hyaluronidase (manufactured by Sigma) haying a respective concentration of 10, 20 or 100 units/mL was added to it, and Candida albicans was cultured for 20 hours. MTT solution (20 μg/mL) was added to each well at the final stage of the culturing, and the contents of the plate were incubated for 4 hours. By adding 100 μL of acidic isopropanol (isopropanol containing 0.04M HCl) to this, the red formazan was eluted and thoroughly mixed. Formazan concentration in the solution of each well was measured by a plate reader (manufactured by Dynex) using 570 nm as the testing wavelength and 620 nm as the reference wave length, respectively.

Candida albicans [4] = experiment: Candida growth inhibition by cells after removal of cell surface HA with hyaluronidase (quantitative plate count); type: cell-based; conditions: various concentrations of hyaluronidase, E:T 80:1, FIG. 2
Procedure: The cells were treated using hyaluronidase (manufactured by Sigma) (50 units/10^6 cells) at 37° C. for 2 hours (J. Oral Sci., 45, p. 85-91 (2003)). The cells after the treatment were washed twice with phosphate buffered saline (pH 7.2, to be referred to as “PBS” hereinafter) and re-suspended in DMEM.
In order to monitor growth inhibition of Candida albicans, a quantitative plate count method was used (J. Infect. Dis., 182, p. 1479-1485 (2000), Infect. Immun., 69, p. 7091-7099 (2001), Med. Mycol., 37, p. 251-259 (1999)). In briefly describing, a co-culture mixture of the same effector and target was incubated at 37° C. for 9 hours under a condition of 5% CO2. […] It was incubated at 30° C. for 48 hours, and the colony forming unit (to be referred to as “CFU” hereinafter) was counted. Hereinafter, counted value of CFU of the sample incubated in the presence of HA is referred to as “test CFU”.
As a control, respective Candida species was incubated in the absence of HA, and this was subjected to the plating in the same manner. Hereinafter, counted value of CFU on the sample is referred to as “control CFU”.
Growth inhibition ratio (%) was calculated from the value of “test CFU” and the value of “control CFU” of its corresponding Candida species based on the following formula. […]

COS-7 = experiment: MTT assay of hyaluronidase-treated cells; type: cell-based, Cercopithecus aetiopus; conditions: COS-7 cells, hyaluronidase 10, 20 or 100 units/mL; data not shown
Procedure: as §3, §4

Substance	nature of the activity of inhibiting Candida growth (bactericidal or bacteriostatic) (Candida albicans [1])	activity of inhibiting the Candida albicans growth (growth inhibition ratio) (Candida albicans [2])	activity of inhibiting growth for other Candida species (growth inhibition ratio) [3]	influence upon the life or death of the cells (MTT) (KB cells)	activity of inhibiting Candida growth of the COS-7 cell after hyaluronidase treatment (Candida albicans [4])	influence upon the life or death of the cells (MTT) (COS-7)
hyaluronic acid [HA]	not bactericidal but rather bacteriostatic	has activity of inhibiting the Candida albicans growth	exerts its activity of inhibiting growth			
hyaluronidase				does not exert influence upon the life or death of the cells	reduced	does not exert influence upon the life or death of the cells

Reference: patent US8557574B2, “Fungal growth inhibitor” (Seikagaku Corporation, priority 2006, dated 2013)
